How the values were obtained:
[1] = system: HBV-infected NTCP-HepG2 cells, secreted HBsAg; assay: microbe, parasite or virus in culture; type: cell-based, hepatitis B virus (genotype D, AD38-derived); conditions: Hepatitis B virus, 120 h, secreted HBsAg in supernatant after 5 days; geometric mean of minimum four determinations; read-out: NTCP HBsAg EC50
How it was run: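 NTCP-HepG2 cells were infected with genotype D HBV at 4000 genome equivalents/cell, then seeded 4 days post-infection with serially diluted compounds (1% DMSO) for 5 days. Supernatant HBsAg was measured by chemiluminescent MSD immunoassay. EC50 from four-parameter fit, geometric mean of ≥4 determinations.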

MT-4 cytotoxicity assay = type: cell-based, human; conditions: human, five days, Cell Titer Glo luminescence; read-out: MT-4 CC50

Compound | EC50 [1] [nM] | CC50 at 5 days (MT-4 cytotoxicity assay) [nM]
COCc1cc2c(cc1OCCCOC(=O)NC1(C(F)F)CC1)[C@H]1CCC(C)(C)N1n1cc(C(=O)O)c(=O)cc1-2 [Example 88, (R)-12-(3-(((1-(Difluoromethyl)cyclopropyl)carbamoyl)oxy)propoxy)-11-(methoxymethyl)-3,3-dimethyl-8-oxo-2,3,8,13b-tetrahydro-H-pyrido[2,1-a]pyrrolo[1,2-c]phthalazine-7-carboxylic acid] | 5.4 | > 10000
CC1(C)CC[C@@H]2c3cc(C#CC(C)(C)S(C)(=O)=O)c(OC(F)(F)F)cc3-c3cc(=O)c(C(=O)O)cn3N21 [Example 89, (R)-3,3-dimethyl-12-(3-methyl-3-(methylsulfonyl)but-1-yn-1-yl)-8-oxo-11-(trifluoromethoxy)-2,3,8,13b-tetrahydro-1H-pyrido[2,1-a]pyrrolo[1,2-c]phthalazine-7-carboxylic acid] | 13.7 | > 10000
COC(C)(C)C#Cc1cc2c(cc1OC(F)(F)F)-c1cc(=O)c(C(=O)O)cn1N1[C@@H]2CCC1(C)C [Example 90, (R)-12-(3-methoxy-3-methylbut-1-yn-1-yl)-3,3-dimethyl-8-oxo-11-(trifluoromethoxy)-2,3,8,13b-tetrahydro-1H-pyrido[2,1-a]pyrrolo[1,2-c]phthalazine-7-carboxylic acid] | 5 | > 10000
CC1(C)CC[C@@H]2c3cc(OCCn4nc5ccccn5c4=O)c(OC(F)(F)F)cc3-c3cc(=O)c(C(=O)O)cn3N21 [Example 91, (R)-3,3-dimethyl-8-oxo-12-(2-(3-oxo-[1,2,4]triazolo[4,3-a]pyridin-2(3H)-yl)ethoxy)-11-(trifluoromethoxy)-2,3,8,13b-tetrahydro-H-pyrido[2,1-a]pyrrolo[1,2-c]phthalazine-7-carboxylic acid] | 3 | > 10000
CC1(C)CC[C@@H]2c3cc(OCC45CC(C#N)(C4)C5)c(OC(F)(F)F)cc3-c3cc(=O)c(C(=O)O)cn3N21 [Example 92, (R)-12-((3-cyanobicyclo[1.1.1]pentan-1-yl)methoxy)-3,3-dimethyl-8-oxo-11-(trifluoromethoxy)-2,3,8,13b-tetrahydro-1H-pyrido[2,1-a]pyrrolo[1,2-c]phthalazine-7-carboxylic acid] | 3 | 8100
CC1(C)CC[C@@H]2c3cc(-c4cnn(C5COC5)c4)c(OC(F)(F)F)cc3-c3cc(=O)c(C(=O)O)cn3N21 [Example 93, (R)-3,3-dimethyl-12-(1-(oxetan-3-yl)-1H-pyrazol-4-yl)-8-oxo-11-(trifluoromethoxy)-2,3,8,13b-tetrahydro-1H-pyrido[2,1-a]pyrrolo[1,2-c]phthalazine-7-carboxylic acid] | 4.4 | > 10000
COCc1cc2c(cc1OCCCOC1COC1)[C@H]1CCC(C)(C)N1n1cc(C(=O)O)c(=O)cc1-2 [Example 94, (R)-11-(methoxymethyl)-3,3-dimethyl-12-(3-(oxetan-3-yloxy)propoxy)-8-oxo-2,3,8,13b-tetrahydro-1H-pyrido[2,1-a]pyrrolo[1,2-c]phthalazine-7-carboxylic acid] | 6 | > 10000
COCc1cc2c(cc1OCCn1nc3ccccn3c1=O)[C@H]1CCC(C)(C)N1n1cc(C(=O)O)c(=O)cc1-2 [Example 95, (R)-11-(methoxymethyl)-3,3-dimethyl-8-oxo-12-(2-(3-oxo-[1,2,4]triazolo[4,3-a]pyridin-2(3H)-yl)ethoxy)-2,3,8,13b-tetrahydro-1H-pyrido[2,1-a]pyrrolo[1,2-c]phthalazine-7-carboxylic acid] | 4.6 | > 10000
CC1(C)CC[C@@H]2c3cc(OCCn4nc5ccccn5c4=O)c(C4CC4)cc3-c3cc(=O)c(C(=O)O)cn3N21 [Example 96, (R)-11-cyclopropyl-3,3-dimethyl-8-oxo-12-(2-(3-oxo-[1,2,4]triazolo[4,3-a]pyridin-2(3H)-yl)ethoxy)-2,3,8,13b-tetrahydro-1H-pyrido[2,1-a]pyrrolo[1,2-c]phthalazine-7-carboxylic acid] | 0.17 | > 10000

— US10442804B2, “Compounds for the treatment of hepatitis B virus infection” (Gilead Sciences, Inc., priority 2017, dated 2019)
